# Test results: patent US7074190B2, “Non-invasive apparatus system for monitoring drug hepatoxicity and uses thereof” (priority 2002, dated 2006)
# Tested on: adult dogs
# Experiment: Artery blood pressure waveform analysis before and after taking the drug, dog experiment
# Type: in vivo
# [1] = Code A dog, 500 mg/kg oral, 12 hours after taking the drug
# [2] = Code A dog, 500 mg/kg oral, before and after taking the drug (12 hours)
# [3] = Code B dog, 1,200 mg/kg subcutaneous injection, 12 hours after taking the drug
# Method: Two adult dogs weighing 12 and 15 kg were used. One (coded A) of them received 500 mg/kg of body weight of acetaminophen oral solution (dissolved in water); and the other one (coded B) received a higher concentration (1,200 mg/kg of body weight) of acetaminophen via subcutaneous injection. After Nembutal was injected and the respirator was put on, the hair on the front legs of the dogs was shaved and a blood pressure waveform sensor was inserted by operation. The waveform of artery blood pressure waveform on brachial position was continuously recorded and analyzed by a computer with a frequency of 100 data per minute. After surgery and before the drug was orally taken or injected, the blood pressure waveform of each dog was measured for two hours as the baseline. After the drug was orally taken or injected, the blood pressure waveform was continuously monitored for analyzing the hepatotoxicity induced by the drug, and blood samples were periodically taken from a tube inserted into the artery for determining the level of hepatotoxicuty.
# The definition of parameter altered amount is: (the parameter value after taking the drug—the parameter value before taking the drug)/the parameter value before taking the drug *100%
smiles,measurement,setting,value
CC(=O)Nc1ccc(O)cc1 [acetaminophen],Oblique angle parameter D1 = (Bb-Aa)/ab,[1],D1 = (Bb-Aa)/ab = 92 mmHg/sec.
same,Oblique angle parameter D2 = (Bb-Cc)/bc,[1],D2 = (Bb-Cc)/bc = 350 mmHg/sec.
same,Oblique angle parameter D3 = (Dd-Cc)/cd,[1],D3 = (Dd-Cc)/cd = 420 mmHg/sec.
same,Oblique angle parameter D4 = (Dd-Ee)/de,[1],D4 = (Dd-Ee)/de = 110 mmHg/sec.
same,Oblique angle parameter D5 = D1 + D2,[1],D5 = D1 + D2 = 1270 mmHg/sec.
same,Oblique angle parameter D6 = D3 + D4,[1],D6 = D3 + D4 = 530 mmHg/sec.
same,Pressure parameter P1 = Aa,[1],P1 = Aa = 149 mmHg
same,Pressure parameter P2 = Bb,[1],P2 = Bb = 195 mmHg
same,Pressure parameter P3 = Cc,[1],P3 = Cc = 156 mmHg
same,Pressure parameter P4 = Dd,[1],P4 = Dd = 173 mmHg
same,Pressure parameter P5 = Ee,[1],P5 = Ee = 149 mmHg
same,Ratio parameter RA1 = A6/A5,[1],RA1 = A6/A5 = 1.46
same,Ratio parameter RA2 = A5/A7,[1],RA2 = A5/A7 = 0.41
same,Ratio parameter RA3 = A6/A7,[1],RA3 = A6/A7 = 0.59
same,Ratio parameter RP1 = Dd/Bb,[1],RP1 = Dd/Bb = 0.89
same,Ratio parameter RT1 = ab/ae,[1],RT1 = ab/ae = 0.12
same,Ratio parameter RT2 = ac/ae,[1],RT2 = ac/ae = 0.40
same,Ratio parameter RT3 = ad/ae,[1],RT3 = ad/ae = 0.49
same,Superficial measure parameter A1 = AabB,[1],A1 = AabB = 9 sec. * mmHg
same,Superficial measure parameter A2 = BbcC,[1],A2 = BbcC = 19 sec. * mmHg
same,Superficial measure parameter A3 = CcdD,[1],A3 = CcdD = 7 sec. * mmHg
same,Superficial measure parameter A4 = DdeE,[1],A4 = DdeE = 34 sec. * mmHg
same,Superficial measure parameter A5 = A1 + A2,[1],A5 = A1 + A2 = 28 sec. * mmHg
same,Superficial measure parameter A6 = A3 + A4,[1],A6 = A3 + A4 = 41 sec. * mmHg
same,Superficial measure parameter A7 = A5 + A6,[1],A7 = A5 + A6 = 69 sec. * mmHg
same,Time parameter T1 = ab,[1],T1 = ab = 0.05 second
same,Time parameter T2 = bc,[1],T2 = bc = 0.11 second
same,Time parameter T3 = cd,[1],T3 = cd = 0.04 second
same,Time parameter T4 = de,[1],T4 = de = 0.21 second
same,Time parameter T5 = ae,[1],T5 = ae = 0.41 second
same,Pressure parameter Altered amount P1 = Aa,[2],P1 = Aa = 0.7 mmHg
same,Pressure parameter Altered amount P2 = Bb,[2],P2 = Bb = 1.0 mmHg
same,Pressure parameter Altered amount P3 = Cc,[2],P3 = Cc = 1.3 mmHg
same,Pressure parameter Altered amount P4 = Dd,[2],P4 = Dd = 2.4 mmHg
same,Pressure parameter Altered amount P5 = Ee,[2],P5 = Ee = 0.7 mmHg
same,Ratio parameter Altered amount RA1 = A6/A5,[2],RA1 = A6/A5 = 12.3
same,Ratio parameter Altered amount RA2 = A5/A7,[2],RA2 = A5/A7 = −6.8
same,Ratio parameter Altered amount RA3 = A6/A7,[2],RA3 = A6/A7 = 5.3
same,Ratio parameter Altered amount RP1 = Dd/Bb,[2],RP1 = Dd/Bb = 9.2
same,Ratio parameter Altered amount RT1 = ab/ae,[2],RT1 = ab/ae = −25.0
same,Ratio parameter Altered amount RT2 = ac/ae,[2],RT2 = ac/ae = −5.0
same,Ratio parameter Altered amount RT3 = ad/ae,[2],RT3 = ad/ae = −11.0
same,Superficial measure parameter Altered amount A1 = AabB,[2],Al = AabB = −10.0 sec. * mmHg
same,Superficial measure parameter Altered amount A2 = BbcC,[2],A2 = BbcC = 11.8 sec. * mmHg
same,Superficial measure parameter Altered amount A3 = CcdD,[2],A3 = CcdD = −12.5 sec. * mmHg
same,Superficial measure parameter Altered amount A4 = DdeE,[2],A4 = DdeE = 25.9 sec. * mmHg
same,Superficial measure parameter Altered amount A5 = A1 + A2,[2],A5 = A1 + A2 = 3.7 sec. * mmHg
same,Superficial measure parameter Altered amount A6 = A3 + A4,[2],A6 = A3 + A4 = 17.1 sec. * mmHg
same,Superficial measure parameter Altered amount A7 = A5 + A6,[2],A7 = A5 + A6 = 11.3 sec. * mmHg
same,Time parameter Altered Amount T2 = bc,[2],T2 = bc = 10.0 second
same,Time parameter Altered Amount T3 = cd,[2],T3 = cd = −20.0 second
same,Time parameter Altered Amount T4 = de,[2],T4 = de = 23.5 second
same,Time parameter Altered Amount T5 = ae,[2],T5 = ae = 7.9 second
same,Time parameter Altered amount T1 = ab,[2],T1 = ab = −16.7 second
same,oblique angle parameter Altered amount D1 = (Bb-Aa)/ab,[2],D1 = (Bb-Aa)/ab = 22.7 mmHg/sec.
same,oblique angle parameter Altered amount D2 = (Bb-Cc)/bc,[2],D2 = (Bb-Cc)/bc = −10.2 mmHg/sec.
same,oblique angle parameter Altered amount D3 = (Dd-Cc)/cd,[2],D3 = (Dd-Cc)/cd = 40.0 mmHg/sec.
same,oblique angle parameter Altered amount D4 = (Dd-Ee)/de,[2],D4 = (Dd-Ee)/de = −8.3 mmHg/sec.
same,oblique angle parameter Altered amount D5 = D1 + D2,[2],D5 = D1 + D2 = 11.4 mmHg/sec.
same,oblique angle parameter Altered amount D6 = D3 + D4,[2],D6 = D3 + D4 = 26.2 mmHg/sec.
same,highest altered amount (oblique angle parameter),"Code A dog, 500 mg/kg oral, before vs 12 hours after taking the drug, all other parameters lower",40%
same,difference between the blood pressure waveforms before and after taking the drug,"Code A dog, 500 mg/kg oral, before vs after taking the drug for 12 hours (FIG. 5 vs FIG. 6)",no significant difference
same,Oblique angle parameter D1 = (Bb-Aa)/ab,[3],D1 = (Bb-Aa)/ab = 2250 mmHg/sec.
same,Oblique angle parameter D2 = (Bb-Ee)/be,[3],D2 = (Bb-Ee)/be = 1383 mmHg/sec.
same,Oblique angle parameter D3 = (Ff-Ee)/ef,[3],D3 = (Ff-Ee)/ef = 420 mmHg/sec.
same,Oblique angle parameter D4 = (Ff-Gg)/fg,[3],D4 = (Ff-Gg)/fg = 311 mmHg/sec.
same,Oblique angle parameter D5 = D1 + D2,[3],D5 = D1 + D2 = 3633 mmHg/sec.
same,Oblique angle parameter D6 = D3 + D4,[3],D6 = D3 + D4 = 731 mmHg/sec.
same,Pressure parameter P1 = Aa,[3],P1 = Aa = 16 mmHg
same,Pressure parameter P2 = Bb,[3],P2 = Bb = 106 mmHg
same,Pressure parameter P3 = Ee,[3],P3 = Ee = 23 mmHg
same,Pressure parameter P4 = Ff,[3],P4 = Ff = 44 mmHg
